The text below walks through data of patent US10858335B2 (Rigel Pharmaceuticals, Inc., priority 2014, dated 2020).

For the assay, the system named is GDF8 signaling (p-SMAD-3 (Ser423/425)). Nature of the assay: AlphaScreen SureFire SMAD3 (p-Ser423/425) assay, GDF8-stimulated cells (GDF pSMAD). Format: cell-based. Particulars: Mus musculus, MPC-11, MPC11; GDF8-stimulated; p-SMAD3 AlphaScreen; read-out: GDF pSMAD (MPC11) (inhibition of GDF8 signaling). On the technique in general: In Alpha technology, singlet oxygen from a donor bead excites a nearby acceptor bead.

As for `O=C(NCCCN1CCCC1=O)c1cnc2ccc(-c3cccnc3-c3cccc(Cl)c3)cn12` [compound 726, 6-(2-(3-Chlorophenyl)pyridin-3-yl)-N-(3-(2-oxopyrrolidin-1-yl)propyl)imidazo[1,2-a]pyridine-3-carboxamide], the IC50 is 565 nM.

On to `O=C(NCCCN1CCCC1=O)c1cnc2ccc(-c3cccnc3-c3ccc(F)c(Cl)c3)cn12` [compound 727, 6-(2-(3-Chloro-4-fluorophenyl)pyridin-3-yl)-N-(3-(2-oxopyrrolidin-1-yl)propyl)imidazo[1,2-a]pyridine-3-carboxamide], for which the IC50 is 886 nM.

On to `O=C(NCCCN1CCCC1=O)c1cnc2ccc(-c3cccnc3-c3cc(F)c(F)cc3F)cn12` [compound 728, N-(3-(2-Oxopyrrolidin-1-yl)propyl)-6-(2-(2,4,5-Trifluorophenyl)pyridin-3-yl)imidazo[1,2-a]pyridine-3-carboxamide], for which the IC50 was determined as 5060 nM.

Consider `O=C(NCCCN1CCCC1=O)c1cnc2ccc(-c3cccnc3-c3cc(Cl)ccc3F)cn12` [compound 729, 6-(2-(5-Chloro-2-fluorophenyl)pyridin-3-yl)-N-(3-(2-oxopyrrolidin-1-yl)propyl)imidazo[1,2-a]pyridine-3-carboxamide], for which the IC50 turned out to be 286 nM.

Turning to `O=C(NCCCN1CCCC1=O)c1cnc2ccc(-c3cccnc3-c3cc(Cl)c(F)cc3F)cn12` [compound 730, 6-(2-(5-Chloro-2,4-difluorophenyl)pyridin-3-yl)-N-(3-(2-oxopyrrolidin-1-yl)propyl)imidazo[1,2-a]pyridine-3-carboxamide], the IC50 stood at 590 nM.

With `Cc1cccc(-c2ncccc2-c2ccn3ncnc3c2)c1` [compound 732, 7-(2-(m-Tolyl)pyridin-3-yl)-[1,2,4]triazolo[1,5-a]pyridine], the IC50 was 258 nM.

For `Fc1ccc(-c2ncccc2-c2ccn3ncnc3c2)cc1Cl` [compound 733, 7-(2-(3-Chloro-4-fluorophenyl)pyridin-3-yl)-[1,2,4]triazolo[1,5-a]pyridine], the IC50 came to 1270 nM.

As for `Clc1cccc(-c2ncccc2-c2ccn3ncnc3c2)c1` [compound 734, 7-(2-(3-Chlorophenyl)pyridin-3-yl)-[1,2,4]triazolo[1,5-a]pyridine], the IC50 was determined as 694 nM.

Take `Fc1cc(F)c(-c2ncccc2-c2ccn3ncnc3c2)cc1Cl` [compound 735, 7-(2-(5-Chloro-2,4-difluorophenyl)pyridin-3-yl)-[1,2,4]triazolo[1,5-a]pyridine]: the IC50 turned out to be 676 nM.

Take `Fc1ccc(Cl)cc1-c1ncccc1-c1ccn2ncnc2c1` [compound 736, 7-(2-(5-Chloro-2-fluorophenyl)pyridin-3-yl)-[1,2,4]triazolo[1,5-a]pyridine]: the IC50 was determined as 251 nM.

Consider `Cc1ccc(F)c(-c2ncccc2-c2ccn3ncnc3c2)c1` [compound 737, 7-(2-(2-Fluoro-5-methylphenyl)pyridin-3-yl)-[1,2,4]triazolo[1,5-a]pyridine], for which the IC50 came out at 260 nM.

Consider `Cc1cc(-c2ncccc2-c2ccc3nccnc3n2)ccc1F` [compound 738, 6-(2-(4-Fluoro-3-methylphenyl)pyridin-3-yl)pyrido[2,3-b]pyrazine], for which the IC50 was 1380 nM.

For the compound `Clc1cccc(-c2ncccc2-c2ccc3nccnc3n2)c1` [compound 739, 6-(2-(3-Chlorophenyl)pyridin-3-yl)pyrido[2,3-b]pyrazine], the IC50 is 2320 nM.

With `Fc1ccc(-c2ncccc2-c2ccc3nccnc3n2)cc1Cl` [compound 740, 6-(2-(3-Chloro-4-fluorophenyl)pyridin-3-yl)pyrido[2,3-b]pyrazine], the IC50 was 9500 nM.

With `Fc1cc(F)c(-c2ncccc2-c2ccc3nccnc3n2)cc1F` [compound 741, 6-(2-(2,4,5-Trifluorophenyl)pyridin-3-yl)pyrido[2,3-b]pyrazine], the IC50 turned out to be 10000 nM.

Take `Fc1ccc(Cl)cc1-c1ncccc1-c1ccc2nccnc2n1` [compound 742, 6-(2-(5-Chloro-2-fluorophenyl)pyridin-3-yl)pyrido[2,3-b]pyrazine]: the IC50 is 1820 nM.

Turning to `Fc1cc(F)c(-c2ncccc2-c2ccc3nccnc3n2)cc1Cl` [compound 743, 6-(2-(5-Chloro-2,4-difluorophenyl)pyridin-3-yl)pyrido[2,3-b]pyrazine], the IC50 turned out to be 638 nM.

As for `Clc1cccc(-c2ncccc2-c2ccc3ncnn3c2)c1` [compound 746, 6-(2-(3-Chlorophenyl)pyridin-3-yl)-[1,2,4]triazolo[1,5-a]pyridine], the IC50 stood at 566 nM.

In the case of `Fc1ccc(Cl)cc1-c1ncccc1-c1ccc2ncnn2c1` [compound 747, 6-(2-(5-Chloro-2-fluorophenyl)pyridin-3-yl)-[1,2,4]triazolo[1,5-a]pyridine], the IC50 was 284 nM.

As to `Cc1ccc(F)c(-c2ncccc2-c2ccc3ncnn3c2)c1` [compound 748, 6-(2-(2-Fluoro-5-methylphenyl)pyridin-3-yl)-[1,2,4]triazolo[1,5-a]pyridine], the IC50 was determined as 447 nM.

As for `Fc1cc(F)c(-c2ncccc2-c2ccc3ncnn3c2)cc1Cl` [compound 749, 6-(2-(5-Chloro-2,4-difluorophenyl)pyridin-3-yl)-[1,2,4]triazolo[1,5-a]pyridine], the IC50 is 298 nM.

On to `Cc1cc(-c2ncccc2-c2ccn3nccc3c2)ccc1F` [compound 756, 5-(2-(4-Fluoro-3-methylphenyl)pyridin-3-yl)pyrazolo[1,5-a]pyridine], for which the IC50 is 364 nM.

In the case of `Cc1cccc(-c2ncccc2-c2ccn3nccc3c2)c1` [compound 757, 5-(2-(m-Tolyl)pyridin-3-yl)pyrazolo[1,5-a]pyridine], the IC50 came to 127 nM.

`Fc1ccc(-c2ncccc2-c2ccn3nccc3c2)cc1Cl` [compound 758, 5-(2-(3-Chloro-4-fluorophenyl)pyridin-3-yl)pyrazolo[1,5-a]pyridine]: the IC50 is 426 nM.

With `Clc1cccc(-c2ncccc2-c2ccn3nccc3c2)c1` [compound 759, 5-(2-(3-Chlorophenyl)pyridin-3-yl)pyrazolo[1,5-a]pyridine], the IC50 was determined as 175 nM.

`Fc1cc(F)c(-c2ncccc2-c2ccn3nccc3c2)cc1Cl` [compound 760, 5-(2-(5-Chloro-2,4-difluorophenyl)pyridin-3-yl)pyrazolo[1,5-a]pyridine]: the IC50 came out at 274 nM.

Turning to `Fc1ccc(Cl)cc1-c1ncccc1-c1ccn2nccc2c1` [compound 761, 5-(2-(5-Chloro-2-fluorophenyl)pyridin-3-yl)pyrazolo[1,5-a]pyridine], the IC50 amounted to 131 nM.

With `CC(=O)c1cnc2ccc(-c3cccnc3-c3ccc(F)c(Cl)c3)cn12` [compound 762, 1-(6-(2-(3-Chloro-4-fluorophenyl)pyridin-3-yl)imidazo[1,2-a]pyridin-3-yl)ethan-1-one], the IC50 came to 1190 nM.

Take `CC(=O)c1cnc2ccc(-c3cccnc3-c3cccc(Cl)c3)cn12` [compound 763, 1-(6-(2-(3-Chlorophenyl)pyridin-3-yl)imidazo[1,2-a]pyridin-3-yl)ethan-1-one]: the IC50 is 520 nM.

For the compound `Cc1cnc2ccc(-c3cccnc3-c3ccc(F)c(Cl)c3)cn12` [compound 764, 6-(2-(3-Chloro-4-fluorophenyl)pyridin-3-yl)-3-methylimidazo[1,2-a]pyridine], the IC50 came to 275 nM.

As to `Cc1cnc2ccc(-c3cccnc3-c3cccc(Cl)c3)cn12` [compound 765, 6-(2-(3-Chlorophenyl)pyridin-3-yl)-3-methylimidazo[1,2-a]pyridine], the IC50 stood at 96 nM.

For `Cc1cnc2ccc(-c3cccnc3-c3cc(Cl)c(F)cc3F)cn12` [compound 766, 6-(2-(5-Chloro-2,4-difluorophenyl)pyridin-3-yl)-3-methylimidazo[1,2-a]pyridine], the IC50 amounted to 105 nM.

Regarding `Cc1cnc2ccc(-c3cccnc3-c3cc(Cl)ccc3F)cn12` [compound 767, 6-(2-(5-Chloro-2-fluorophenyl)pyridin-3-yl)-3-methylimidazo[1,2-a]pyridine], the IC50 came out at 227 nM.

With `Cn1cnc2ccc(-c3cccnc3-c3ccc(F)c(Cl)c3)cc21` [compound 768, 6-(2-(3-Chloro-4-fluorophenyl)pyridin-3-yl)-1-methyl-1H-benzo[d]imidazole], the IC50 came out at 327 nM.

As to `Cn1cnc2ccc(-c3cccnc3-c3cccc(Cl)c3)cc21` [compound 769, 6-(2-(3-Chlorophenyl)pyridin-3-yl)-1-methyl-1H-benzo[d]imidazole], the IC50 worked out at 153 nM.

Consider `Fc1cc(Cl)cc(-c2ncccc2-c2ccc3ncnn3c2)c1` [compound 770, 6-(2-(3-Chloro-5-fluorophenyl)pyridin-3-yl)-[1,2,4]triazolo[1,5-a]pyridine], for which the IC50 was 1310 nM.

As to `Clc1ccc(Cl)c(-c2ncccc2-c2ccc3ncnn3c2)c1` [compound 771, 6-(2-(2,5-Dichlorophenyl)pyridin-3-yl)-[1,2,4]triazolo[1,5-a]pyridine], the IC50 was found to be 1110 nM.

For `Fc1c(Cl)cccc1-c1ncccc1-c1ccc2ncnn2c1` [compound 772, 6-(2-(3-Chloro-2-fluorophenyl)pyridin-3-yl)-[1,2,4]triazolo[1,5-a]pyridine], the IC50 was 4950 nM.

Consider `Cc1c(Cl)cccc1-c1ncccc1-c1ccc2ncnn2c1` [compound 773, 6-(2-(3-Chloro-2-methylphenyl)pyridin-3-yl)-[1,2,4]triazolo[1,5-a]pyridine], for which the IC50 stood at 8480 nM.

In the case of `Cc1cc(Cl)cc(-c2ncccc2-c2ccc3ncnn3c2)c1` [compound 775, 6-(2-(3-Chloro-5-methylphenyl)pyridin-3-yl)-[1,2,4]triazolo[1,5-a]pyridine], the IC50 was found to be 3960 nM.

For `COc1cccc(-c2ncccc2-c2ccc3ncnn3c2)c1` [compound 779, 6-(2-(3-Methoxyphenyl)pyridin-3-yl)-[1,2,4]triazolo[1,5-a]pyridine], the IC50 was 761 nM.

Regarding `FC(F)(F)Oc1cccc(-c2ncccc2-c2ccc3ncnn3c2)c1` [compound 780, 6-(2-(3-(Trifluoromethoxy)phenyl)pyridin-3-yl)-[1,2,4]triazolo[1,5-a]pyridine], the IC50 turned out to be 730 nM.

Consider `c1ccc(-c2ncccc2-c2ccc3ncnn3c2)cc1` [compound 781, 6-(2-Phenylpyridin-3-yl)-[1,2,4]triazolo[1,5-a]pyridine], for which the IC50 came to 5860 nM.
